Results from patent US20230167109A1, “Aminopiperidine Amides, Derivatives, Compositions, and Uses Related to CXCR4 Modulation” (Emory University, priority 2020, published 2023).

How the values were obtained:
CXCR4 = molecular target: T1, CXCR4 (Homo sapiens, UniProt P61073); assay: In vitro binding assay: blocking of CXCR4-targeted TN14003 conjugate on MDA-MB-231 cells
T1 construct: endogenous in cells; host or cells: MDA-MB-231
Protocol: (§1) EC (effective concentration) was calculated as the concentration at which the compound blocks >50% of CXCR4-targeted peptidomimetic conjugate (rhodamine Red X-TN14003). The inhibition % against the chemoattract, CXCL12 was determined by Matrigel invasion assay using 100 nM of compounds.
(§2) After computer evaluation of chemical libraries, seven compounds were tested by in vitro assays. The first binding assay quantified the affinity of compounds to the receptor by measuring the fluorescence of CXCR4-targeted peptidomimetic conjugate (rhodamine Red X-TN14003) after treating CXCR4-positive with each compound, which presents a lower fluorescent intensity for the compound with higher affinity. […] As a secondary orthogonal functional assay, Matrigel invasion assays were performed which measures the inhibitory efficacies of compounds against the chemotaxis between CXCR4-positive cells and the chemokine, CXCL12.
MDA-MB-231 cells were cultured in an eight-well slide chamber for two days. The cells were pre-incubated with the compounds for 15 min, and then fixed with 4% formaldehyde. […] Pictures were analyzed quantitatively with ImageJ. EC (effective concentration) is determined for the concentration at with the compound blocks >50% of CXCR4-targeted TN14003 conjugate using 1, 10, 100, and 1000 nM of compounds. […]

MDA-MB-231 cells = assay: In vitro Matrigel invasion assay (chemotaxis towards CXCL12); type: cell-based; conditions: Homo sapiens, compound at 100 nM, 200 ng/ml CXCL12 as chemoattractant, 22 h
Protocol: as §1, §2
Matrigel invasion chambers were used for invasion assays. MDA-MB-231 cells were cultured on a layer of Matrigel in the upper chamber with compounds at 100 nM, while 200 ng/ml of CXCL12 was added in the lower chamber as a chemoattractant. […] Invading cells at the bottom of the Matrigel were fixed in methanol and stained with H&E. The percentage of invading cells was determined by counting the H&E-stained cells.

[1] = test system: carrageenan-induced paw edema; assay: In vivo anti-inflammation study, carrageenan-induced mouse paw edema model; conditions: 10 mg/kg i.p., once a day; mice sacrificed 74 h after carrageenan; n=5
Protocol: Acute paw inflammation was induced by subcutaneous injection of 50 μL of λ-carrageenan in left hind paw. The mice in the treatment group were all administered Z7R at 10 mg/kg i.p., while control animals received corresponding i.p. injection of vehicle. Acute inflammation was induced by subcutaneous injection of […], of λ-carrageenan (1% w/v in saline) into the left hind paws of male nude mice (6 weeks, 20 g, Jackson Laboratory, Strain JAZ 007850 J:NU); the other hind paw was used as the non-inflammation control. The compounds were administered intraperitoneally (i.p. injection), 30 min after carrageenan challenge with the dose of 10 mg/kg using the formulation of 10% DMSO and 40% (2-hydroxypropyl)-β-cyclodextrin (CD) in PBS, and then once a day following the initial dose. The mice were sacrificed 74 h after inflammation was induced and 2 h after the last injection of the compounds. The hind paws of the mice were photographed, the thicknesses of the paws were measured by a caliper, and the weights of the paws were measured by a balance after transecting at the level of the malleoli. To quantify the edema, the measured values of the untreated group were subtracted from the treated group. The inflammation suppression percentage was calculated by comparing the compound-treated groups to the control group (n=5). Fixed paw tissue was sliced and stained with H&E for histology study.

[2] = test system: CXCR4-expressing infiltrating cells; assay: Immunohistochemistry of paw tissue with anti-CXCR4 antibody; type: in vivo; conditions: paw tissue of Z7R-treated mouse vs inflamed tissue
Protocol: The avidin-biotin complex method was used to detect the proteins CXCR4 with anti-CXCR4 antibody (R&D System) at dilution 1:500. Formalin-fixed and paraffin-embedded tissues were deparaffinized and subsequently microwaved in 10 mM of sodium citrate buffer (pH 6.0) to retrieve antigens. After pre-incubation with hydrogen peroxide, avidin/biotin blocking kit (Invitrogen Co, CA), and horse serum (Vector Laboratories), the primary antibodies were applied overnight at 4° C. temperature. After incubation with the secondary antibody (rabbit anti-mouse biotinylated; Invitrogen Co, CA), the avidin-biotin complex was added and the enzyme activity was visualized with diaminobenzidine (ABC kit, Vector laboratories). Counterstaining was performed with hematoxylin.

T1 sequence (P61073 whole entry): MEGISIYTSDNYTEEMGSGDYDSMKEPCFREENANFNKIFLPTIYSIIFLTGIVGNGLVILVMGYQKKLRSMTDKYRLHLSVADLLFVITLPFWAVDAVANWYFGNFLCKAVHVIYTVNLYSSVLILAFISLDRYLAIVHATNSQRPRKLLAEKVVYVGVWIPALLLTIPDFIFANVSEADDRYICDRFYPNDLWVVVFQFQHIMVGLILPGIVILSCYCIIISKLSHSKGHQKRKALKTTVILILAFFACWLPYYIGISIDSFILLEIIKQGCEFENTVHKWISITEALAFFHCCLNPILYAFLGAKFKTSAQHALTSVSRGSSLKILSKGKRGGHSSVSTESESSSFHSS

NC(C(=O)NC1CCN(C(=O)CCn2ccc3ccncc32)CC1)c1ccccc1 (stereo not drawn) [ZINC 72372983, N-(1-(3-(pyrrolo[2,3-c]pyridin-1-yl)propanoyl)piperidin-4-yl)-2-amino-2-phenylacetamide]
EC50 (CXCR4; compounds tested at 1, 10, 100 and 1000 nM, read-out: binding affinity (EC, effective concentration: concentration at which the compound blocks more than 50% of rhodamine Red X-TN14003)): 100 nM
inhibition at 0.1 µM (MDA-MB-231 cells): 69%

N=C(N)NCCCC(N)C(=O)NC1CCN(C(=O)CCn2ccc3ccncc32)CC1 (stereo not drawn) [Z7R, N-(1-(3-(pyrrolo[2,3-c]pyridin-1-yl)propanoyl)piperidin-4-yl)-2-amino-5-guanidinopentanamide]
IC50 (CXCR4; fitted with GraphPad Prism 5, read-out: affinity IC50): 1.25 nM
inhibition at 0.1 µM (MDA-MB-231 cells): 78.5%
anti-inflammatory activity: reduction of edema (paw) weight vs untreated mice [1]: 50%
CXCR4-expressing infiltrating cells in carrageenan-induced inflammatory tissue [2]: reduced presence of CXCR4s
